Source: patent US20250345426A1, “METHODS FOR MAKING AND USING THERAPEUTIC CELLS” (THE REGENTS OF THE UNIVERSITY OF CALIFORNIA, priority 2022, published 2025)

Legend:
rituximab CAR-T cells = assay: T-cell subtype distribution (CD45RO/CD62L staining), rituximab CAR-T cells; type: cell-based, human; conditions: 5 days of pharmacological modulation, vs vehicle
Text: FIG. 1A-G. Pharmacological inhibition of PI3K/AKT pathway modulates antigen-independent CAR-T cell activation. (A) Table of pharmacological inhibitors used during ex vivo expansion of rituximab CAR-T cells (left). Simplified schematic of the PI3K/AKT signaling axis where black arrows represent activation (right). (B) Activation marker expression by CAR^+ T cells in the absence of antigen stimulation after 5 days of pharmacological modulation. Data bars indicate the means of technical triplicates±1 S.D. The bars in FIG. 1B represent data from, untreated, vehicle, CAL-101, AZD5363, Rapamycin, MYCi975, and Betulin, respectively, from left to right. (C) TNF-α production CAR^+ T cells in the absence of antigen stimulation as quantified by intracellular flow cytometry. Data bars indicate the means of technical triplicates±1 S.D. The bars in FIG. 1B and FIG. 1C represent data from, untreated, vehicle, CAL-101, AZD5363, Rapamycin, MYCi975, and Betulin, respectively, from left to right. (D) Proliferation of CAR^+ T cells stained with CellTrace Violet (CTV) dye was assayed after a 4-day culture in the absence of target cells or exogenous cytokines. […] Statistical significance in panels B, C, and D was determined by two-tailed Student's t test with Sidak correction for multiple comparisons. * p<0.05, ** p<0.01, *** p<0.001, n.s. not statistically significant. […]
Antibody staining for flow-cytometry analysis. EGFRt expression was measured with biotinylated cetuximab (Eli Lilly; biotinylated in-house), followed by PE-conjugated streptavidin (Jackson ImmunoResearch #016-110-084). CAR expression was quantified by surface epitope staining using anti-Fc (Alexa Fluor 488, Jackson ImmunoResearch #709-546-098). Antigen-independent activation-marker expression of CAR-T cells was evaluated by antibody staining for CD137 (PE/Cy7, clone 4B4-1, BioLegend #309818), and PD-1 (FITC, clone EH12.2H7, BioLegend #329904) on Days 18 (i.e., 18 days after Dynabead addition and 11 days after Dynabead removal) and after 5-6 days of inhibitor culture (FIG. 1, FIG. 3). […]

Raji tumor xenografts = assay: Raji xenograft in NSG mice treated with inhibitor-preconditioned rituximab CAR-T cells; type: in vivo; conditions: NSG mice, Raji i.v., preconditioned rituximab CAR-T cells, bioluminescence, vs vehicle control
Description: FIG. 2A-C. […] (A) Tumor signal (in photons/sec/cm^2/sr) in individual animals as quantified by bioluminescence imaging. […] Statistical significance was determined by Mann-Whitney U test with Holm-Sidak correction for multiple comparisons. * p<0.05, n.s. not statistically significant. (B) Kaplan-Meier survival curve (top) and table of median survival period in days (bottom). (C) Frequency of human CD45+EGFRt+ cell in peripheral blood collected from mice on day 8 after first dose of T-cell infusion. Statistical significance was determined by two-tailed Student's t test with Sidak correction for multiple comparisons. * p<0.05, ** p<0.01.
In vivo studies. Six- to eight-week-old NOD/SCID/IL-2Rγ^null (NSG) mice were obtained from UCLA Department of Radiation and Oncology. The protocol was approved by UCLA Institutional Animal Care and Used Committee. […] Details of the dose and timing of tumor injection, T-cell injection, and tumor re-challenge are indicated in the text and figures. Tumor progression/regression was monitored with an IVIS Illumina III LT Imaging System (PerkinElmer). Blood samples were harvested via retro-orbital bleeding 3 days post T-cell injection and every 10-13 days thereafter. Mice were euthanized at the humane endpoint. Bone marrow, spleen and liver were collected after euthanasia. Tissues were ground and passed through a 100-μm filter followed by red-blood-cell lysis prior to flow-cytometry analysis.

Raji target cells = assay: 24-hr lysis assay of inhibitor-treated rituximab CD20 CAR-T cells against Raji; type: cell-based; conditions: three E:T ratios, vs vehicle-treated
Text: FIG. 1A-G. Pharmacological inhibition of PI3K/AKT pathway modulates antigen-independent CAR-T cell activation. (A) Table of pharmacological inhibitors used during ex vivo expansion of rituximab CAR-T cells (left). Simplified schematic of the PI3K/AKT signaling axis where black arrows represent activation (right). (B) Activation marker expression by CAR^+ T cells in the absence of antigen stimulation after 5 days of pharmacological modulation. Data bars indicate the means of technical triplicates±1 S.D. The bars in FIG. 1B represent data from, untreated, vehicle, CAL-101, AZD5363, Rapamycin, MYCi975, and Betulin, respectively, from left to right. (C) TNF-α production CAR^+ T cells in the absence of antigen stimulation as quantified by intracellular flow cytometry. Data bars indicate the means of technical triplicates±1 S.D. The bars in FIG. 1B and FIG. 1C represent data from, untreated, vehicle, CAL-101, AZD5363, Rapamycin, MYCi975, and Betulin, respectively, from left to right. (D) Proliferation of CAR^+ T cells stained with CellTrace Violet (CTV) dye was assayed after a 4-day culture in the absence of target cells or exogenous cytokines. Data shown in the histogram correspond to one of technical triplicates shown in the bar graph. The bars FIG. 1D represent data from, EGFRt, untreated, vehicle, CAL-101, AZD5363, Rapamycin, MYCi975, and Betulin, respectively, from left to right. (E) % distribution of T-cell subtypes in CAR^+ T cells after 5 days of pharmacological modulation. Data bars indicate the means of technical triplicates±1 S.D. (F) Rituximab CAR-T cell fold expansion after 6 days of inhibitor culture was tracked. […] Statistical significance in panels B, C, and D was determined by two-tailed Student's t test with Sidak correction for multiple comparisons. * p<0.05, ** p<0.01, *** p<0.001, n.s. not statistically significant.
Cytotoxicity assay with Raji cells. […] Remaining target cells were quantified by MACSQuant VYB flow cytometer 24-hr post co-incubation.

| Molecule | fraction of naïve and stem-cell memory T (Tn/scm) cells / T-cell differentiation (rituximab CAR-T cells) | tumor outgrowth / tumor progression (Raji tumor xenografts) | lysis of Raji tumor cells (Raji target cells) |
| --- | --- | --- | --- |
| C=C(C)[C@@H]1CC[C@]2(CO)CC[C@]3(C)[C@H](CC[C@@H]4[C@@]5(C)CC[C@H](O)C(C)(C)[C@@H]5CC[C@]43C)[C@@H]12 [betulin, Betulin] | accelerated T-cell differentiation | accelerated tumor progression | clustered together |
| MYCi975 | accelerated T-cell differentiation | accelerated tumor progression | clustered together |
